Measured values published in ChEMBL document CHEMBL3044945, “Synthesis of 1,3,5-trisubstituted pyrazoline nucleus containing compounds and screening for antimicrobial activity” (2012).
In brackets after ≈: the same amount, converted by molar mass.

Legend:
Assay type in all cases: functional
Aspergillus niger [1] = assay: Antifungal activity against Aspergillus niger MTCC 2546 at 500 ug/ml after 48 hr by cup-plate method; settings: MTCC 2546, 48 h, read-out: DIZ
Pseudomonas aeruginosa [2] = assay: Antibacterial activity against Pseudomonas aeruginosa MTCC 424 at 100 ug/ml after 48 hr by cup-plate method; settings: MTCC 424, 48 h, read-out: DIZ
Micrococcus luteus [3] = assay: Antibacterial activity against Micrococcus luteus MTCC 1538 at 1250 ug/ml after 48 hr by cup-plate method; settings: MTCC 1538, 48 h, read-out: DIZ
Escherichia coli [4] = assay: Antibacterial activity against Escherichia coli MTCC 1573 at 100 ug/ml after 48 hr by cup-plate method; settings: MTCC 1573, 48 h, read-out: DIZ
Penicillium chrysogenum [5] = assay: Antifungal activity against Penicillium chrysogenum MTCC 161 at 500 ug/ml after 48 hr by cup-plate method; settings: MTCC 161, 48 h, read-out: DIZ
Penicillium chrysogenum [6] = assay: Antifungal activity against Penicillium chrysogenum MTCC 161 at 1250 ug/ml after 48 hr by cup-plate method; settings: MTCC 161, 48 h, read-out: DIZ
Bacillus subtilis [7] = assay: Antibacterial activity against Bacillus subtilis MTCC 441 at 1000 ug/ml after 48 hr by cup-plate method; settings: MTCC 441, 48 h, read-out: DIZ
Penicillium chrysogenum [8] = assay: Antifungal activity against Penicillium chrysogenum MTCC 161 at 1000 ug/ml after 48 hr by cup-plate method; settings: MTCC 161, 48 h, read-out: DIZ
Staphylococcus aureus [9] = assay: Antibacterial activity against Staphylococcus aureus MTCC 1430 at 250 ug/ml after 48 hr by cup-plate method; settings: MTCC 1430, 48 h, read-out: DIZ
Bacillus pumilus [10] = assay: Antibacterial activity against Bacillus pumilus MTCC 1456 at 250 ug/ml after 48 hr by cup-plate method; settings: MTCC 1456, 48 h, read-out: DIZ
Aspergillus niger [11] = assay: Antifungal activity against Aspergillus niger MTCC 2546 at 1250 ug/ml after 48 hr by cup-plate method; settings: MTCC 2546, 48 h, read-out: DIZ
Pseudomonas fluorescens [12] = assay: Antibacterial activity against Pseudomonas fluorescens MTCC 2421 at 500 ug/ml after 48 hr by cup-plate method; settings: MTCC 2421, 48 h, read-out: DIZ
Staphylococcus aureus [13] = assay: Antibacterial activity against Staphylococcus aureus MTCC 1430 after 24 to 48 hr by tube dilution method
Bacillus subtilis [14] = assay: Antibacterial activity against Bacillus subtilis MTCC 441 after 24 to 48 hr by tube dilution method
Escherichia coli [15] = assay: Antibacterial activity against Escherichia coli MTCC 1573 at 1000 ug/ml after 48 hr by cup-plate method; settings: MTCC 1573, 48 h, read-out: DIZ
Bacillus subtilis [16] = assay: Antibacterial activity against Bacillus subtilis MTCC 441 at 100 ug/ml after 48 hr by cup-plate method; settings: MTCC 441, 48 h, read-out: DIZ
Staphylococcus aureus [17] = assay: Antibacterial activity against Staphylococcus aureus MTCC 1430 at 1250 ug/ml after 48 hr by cup-plate method; settings: MTCC 1430, 48 h, read-out: DIZ
Micrococcus luteus [18] = assay: Antibacterial activity against Micrococcus luteus MTCC 1538 at 750 ug/ml after 48 hr by cup-plate method; settings: MTCC 1538, 48 h, read-out: DIZ
Pseudomonas aeruginosa [19] = assay: Antibacterial activity against Pseudomonas aeruginosa MTCC 424 at 1000 ug/ml after 48 hr by cup-plate method; settings: MTCC 424, 48 h, read-out: DIZ
Bacillus subtilis [20] = assay: Antibacterial activity against Bacillus subtilis MTCC 441 at 1250 ug/ml after 48 hr by cup-plate method; settings: MTCC 441, 48 h, read-out: DIZ
Staphylococcus aureus [21] = assay: Antibacterial activity against Staphylococcus aureus MTCC 1430 at 500 ug/ml after 48 hr by cup-plate method; settings: MTCC 1430, 48 h, read-out: DIZ
Bacillus subtilis [22] = assay: Antibacterial activity against Bacillus subtilis MTCC 441 at 750 ug/ml after 48 hr by cup-plate method; settings: MTCC 441, 48 h, read-out: DIZ
Bacillus pumilus [23] = assay: Antibacterial activity against Bacillus pumilus MTCC 1456 at 100 ug/ml after 48 hr by cup-plate method; settings: MTCC 1456, 48 h, read-out: DIZ
Micrococcus luteus [24] = assay: Antibacterial activity against Micrococcus luteus MTCC 1538 after 24 to 48 hr by tube dilution method
Escherichia coli [25] = assay: Antibacterial activity against Escherichia coli MTCC 1573 at 250 ug/ml after 48 hr by cup-plate method; settings: MTCC 1573, 48 h, read-out: DIZ
Aspergillus niger [26] = assay: Antifungal activity against Aspergillus niger MTCC 2546 at 250 ug/ml after 48 hr by cup-plate method; settings: MTCC 2546, 48 h, read-out: DIZ
Escherichia coli [27] = assay: Antibacterial activity against Escherichia coli MTCC 1573 at 500 ug/ml after 48 hr by cup-plate method; settings: MTCC 1573, 48 h, read-out: DIZ
Bacillus subtilis [28] = assay: Antibacterial activity against Bacillus subtilis MTCC 441 at 500 ug/ml after 48 hr by cup-plate method; settings: MTCC 441, 48 h, read-out: DIZ
Bacillus pumilus [29] = assay: Antibacterial activity against Bacillus pumilus MTCC 1456 at 500 ug/ml after 48 hr by cup-plate method; settings: MTCC 1456, 48 h, read-out: DIZ
Micrococcus luteus [30] = assay: Antibacterial activity against Micrococcus luteus MTCC 1538 at 250 ug/ml after 48 hr by cup-plate method; settings: MTCC 1538, 48 h, read-out: DIZ
Bacillus pumilus [31] = assay: Antibacterial activity against Bacillus pumilus MTCC 1456 at 1250 ug/ml after 48 hr by cup-plate method; settings: MTCC 1456, 48 h, read-out: DIZ
Escherichia coli [32] = assay: Antibacterial activity against Escherichia coli MTCC 1573 at 750 ug/ml after 48 hr by cup-plate method; settings: MTCC 1573, 48 h, read-out: DIZ
Aspergillus niger [33] = assay: Antifungal activity against Aspergillus niger MTCC 2546 at 1000 ug/ml after 48 hr by cup-plate method; settings: MTCC 2546, 48 h, read-out: DIZ
Pseudomonas fluorescens [34] = assay: Antibacterial activity against Pseudomonas fluorescens MTCC 2421 at 750 ug/ml after 48 hr by cup-plate method; settings: MTCC 2421, 48 h, read-out: DIZ
Staphylococcus aureus [35] = assay: Antibacterial activity against Staphylococcus aureus MTCC 1430 at 750 ug/ml after 48 hr by cup-plate method; settings: MTCC 1430, 48 h, read-out: DIZ
Pseudomonas aeruginosa [36] = assay: Antibacterial activity against Pseudomonas aeruginosa MTCC 424 at 750 ug/ml after 48 hr by cup-plate method; settings: MTCC 424, 48 h, read-out: DIZ
Pseudomonas aeruginosa [37] = assay: Antibacterial activity against Pseudomonas aeruginosa MTCC 424 after 24 to 48 hr by tube dilution method
Pseudomonas fluorescens [38] = assay: Antibacterial activity against Pseudomonas fluorescens MTCC 2421 after 24 to 48 hr by tube dilution method
Staphylococcus aureus [39] = assay: Antibacterial activity against Staphylococcus aureus MTCC 1430 at 1000 ug/ml after 48 hr by cup-plate method; settings: MTCC 1430, 48 h, read-out: DIZ
Pseudomonas aeruginosa [40] = assay: Antibacterial activity against Pseudomonas aeruginosa MTCC 424 at 1250 ug/ml after 48 hr by cup-plate method; settings: MTCC 424, 48 h, read-out: DIZ
Bacillus pumilus [41] = assay: Antibacterial activity against Bacillus pumilus MTCC 1456 after 24 to 48 hr by tube dilution method
Pseudomonas aeruginosa [42] = assay: Antibacterial activity against Pseudomonas aeruginosa MTCC 424 at 500 ug/ml after 48 hr by cup-plate method; settings: MTCC 424, 48 h, read-out: DIZ
Escherichia coli [43] = assay: Antibacterial activity against Escherichia coli MTCC 1573 at 1250 ug/ml after 48 hr by cup-plate method; settings: MTCC 1573, 48 h, read-out: DIZ
Pseudomonas aeruginosa [44] = assay: Antibacterial activity against Pseudomonas aeruginosa MTCC 424 at 250 ug/ml after 48 hr by cup-plate method; settings: MTCC 424, 48 h, read-out: DIZ
Bacillus subtilis [45] = assay: Antibacterial activity against Bacillus subtilis MTCC 441 at 250 ug/ml after 48 hr by cup-plate method; settings: MTCC 441, 48 h, read-out: DIZ

`O=[N+]([O-])c1ccc(C2CC(c3cccc4ccccc34)=NN2c2ccccc2[N+](=O)[O-])cc1` (stereo not given) was tested, and the zone of inhibition at 500 µg/mL (Aspergillus niger [1]) was 12 mm, the zone of inhibition at 100 µg/mL (Pseudomonas aeruginosa [2]) was 13 mm and the zone of inhibition at 1250 µg/mL (Micrococcus luteus [3]) was 17 mm. It also gave a zone of inhibition at 100 µg/mL (Escherichia coli [4]) of 9 mm, a zone of inhibition at 500 µg/mL (Penicillium chrysogenum [5]) of 15 mm and a zone of inhibition at 1250 µg/mL (Penicillium chrysogenum [6]) of 26 mm. The zone of inhibition at 1000 µg/mL (Bacillus subtilis [7]) was 16 mm, the zone of inhibition at 1000 µg/mL (Penicillium chrysogenum [8]) was 24 mm and the zone of inhibition at 250 µg/mL (Staphylococcus aureus [9]) was 9 mm. The zone of inhibition at 250 µg/mL (Bacillus pumilus [10]) was 11 mm, the zone of inhibition at 1250 µg/mL (Aspergillus niger [11]) was 25 mm and the zone of inhibition at 500 µg/mL (Pseudomonas fluorescens [12]) was 13 mm. The MIC (Staphylococcus aureus [13]) was 50 µg/mL (≈ 114 µM), the MIC (Bacillus subtilis [14]) was 19 µg/mL (≈ 43.3 µM) and the zone of inhibition at 1000 µg/mL (Escherichia coli [15]) was 17 mm. It also gave a zone of inhibition at 100 µg/mL (Bacillus subtilis [16]) of 12 mm, a zone of inhibition at 1250 µg/mL (Staphylococcus aureus [17]) of 15 mm and a zone of inhibition at 750 µg/mL (Micrococcus luteus [18]) of 13 mm. The zone of inhibition at 1000 µg/mL (Pseudomonas aeruginosa [19]) was 17 mm, the zone of inhibition at 1250 µg/mL (Bacillus subtilis [20]) was 17 mm and the zone of inhibition at 500 µg/mL (Staphylococcus aureus [21]) was 10 mm. For the same compound, the zone of inhibition at 750 µg/mL (Bacillus subtilis [22]) was 15 mm, the zone of inhibition at 100 µg/mL (Bacillus pumilus [23]) was 10 mm and the MIC (Micrococcus luteus [24]) was 30 µg/mL (≈ 68.4 µM). For the same compound, the zone of inhibition at 250 µg/mL (Escherichia coli [25]) was 10 mm, the zone of inhibition at 250 µg/mL (Aspergillus niger [26]) was 11 mm and the zone of inhibition at 500 µg/mL (Escherichia coli [27]) was 11 mm. It also gave a zone of inhibition at 500 µg/mL (Bacillus subtilis [28]) of 14 mm, a zone of inhibition at 500 µg/mL (Bacillus pumilus [29]) of 12 mm and a zone of inhibition at 250 µg/mL (Micrococcus luteus [30]) of 8 mm. The zone of inhibition at 1250 µg/mL (Bacillus pumilus [31]) was 25 mm, the zone of inhibition at 750 µg/mL (Escherichia coli [32]) was 13 mm and the zone of inhibition at 1000 µg/mL (Aspergillus niger [33]) was 23 mm. The zone of inhibition at 750 µg/mL (Pseudomonas fluorescens [34]) was 18 mm, the zone of inhibition at 750 µg/mL (Staphylococcus aureus [35]) was 12 mm and the zone of inhibition at 750 µg/mL (Pseudomonas aeruginosa [36]) was 16 mm. The MIC (Pseudomonas aeruginosa [37]) was 150 µg/mL (≈ 342 µM), the MIC (Pseudomonas fluorescens [38]) was 30 µg/mL (≈ 68.4 µM) and the zone of inhibition at 1000 µg/mL (Staphylococcus aureus [39]) was 13 mm. The zone of inhibition at 1250 µg/mL (Pseudomonas aeruginosa [40]) was 18 mm, the MIC (Bacillus pumilus [41]) was 30 µg/mL (≈ 68.4 µM) and the zone of inhibition at 500 µg/mL (Pseudomonas aeruginosa [42]) was 15 mm. It also gave a zone of inhibition at 1250 µg/mL (Escherichia coli [43]) of 20 mm, a zone of inhibition at 250 µg/mL (Pseudomonas aeruginosa [44]) of 14 mm and a zone of inhibition at 250 µg/mL (Bacillus subtilis [45]) of 13 mm.
